Laboratory results: patent publication US6500934B1, “Bivalent agonists for G-protein coupled receptors” (priority 1996, dated 2002)

Key:
α-MSH receptor [1] = test: Frog melanocyte assay, pigment dispersion (agonist mode) in wild type melanophores; type: cell-based, Xenopus laevis; conditions: for pigment dispersion (result in words): α-MSH-ANT dimer: at higher concentrations (FIG. 6); for EC50: FIG. 4
Method: Frog Melanocyte Assay. Xenopus laevis melanophores were maintained in culture as described by M. Engel et al., Biochemistry 30, 3161-3169 (1991); C. A. Slate et al., Int. J. Peptide Protein Res. 45, 290-298 (1995); and C. Plank et al., J. Biol. Chem. 269, 12918-12924 (1994). Transient expression of bombesin receptor plasmid DNA (pJG3.6BR) in melanophores was achieved by electroporation (C. A. Slate et al., Int. J. Peptide Protein Res. 45, 290-298 (1995)). Melanophores were plated (15,000 per well) on 96 well tissue culture plates (Falcon), and time and dose-response curves were obtained by microtiter plate assays (R. Duncan et al., Clin. Pharmacokinet. 27, 290-306 (1994); M. Engel et al., Biochemistry 30, 3161-3169 (1991); C. A. Slate et al., Int. J. Peptide Protein Res. 45, 290-298 (1995); C. Plank et al., J. Biol. Chem. 269, 12918-12924 (1994); and P. M. Conn et al., Endocrinology 111, 335-337 (1982)). Prior to addition of monomers or dimers, cells were washed and then incubated for one hour with 0.7× L15 media supplemented with 1 nM melatonin. […] Monomers or dimers were added to the microtiter wells in 20 μl aliquots at 10 times their final concentration. For IC50 curves, the media also was supplemented with 5 nM α-MSH.
(§1) Phototransmission was measured at 620 nm using a 340 ATTC microtiter plate reader (SLT Lab Instruments). Transmission readings were taken 1 hour following the addition of melatonin (Ti), and monomers or dimers were added immediately. Additional readings (Tf) were made at various time points (5-60 min). Data was curve fitted by nonlinear regression with y=1−(Tf/Ti). The final data was normalized and expressed as a percentage of maximal pigment dispersion (ymax).
For this study, a rapid, functional assay for G-protein-coupled receptors in frog melanophore cells (C. K. Jayawickreme et al., J. Biol. Chem. 269, 29846-29854 (1994); M. N. Potenza et al., Anal. Biochem. 206, 315-322 (1992); G. F. Graminski et al., J. Biol. Chem. 268, 5957-5964 (1993); S. Karne et al., J. Biol. Chem. 268, 19126-19133 (1993); and C. K. Jayawickreme et al., Proc. Natl. Acad. Sci. USA 91, 1614-1618 (1994)) was used. In frog melanocyte cells, ligands like α-MSH that mediate increases in cellular cyclic AMP levels, or like endothelin 3 that stimulate PI metabolism (S. Karne et al., J. Biol. Chem. 268, 19126-19133 (1993)), cause pigment dispersion and cell darkening, whereas inhibitors of cyclic AMP synthesis, like melatonin, cause pigment aggregation and cell lightening. In this study, the effect of monomeric and dimeric peptides on pigment dispersion was determined.
Wild type melanophores were used for assays involving α-MSH and α-MSH-ANT monomers and dimers. Melanophores that were transfected with a plasmid that contained the bombesin receptor coding region were used for assays involving bombesin monomer and dimer (G. F. Graminski et al., J. Biol. Chem. 268, 5957-5964 (1993); and C. K. Jayawickreme et al., Proc. Natl. Acad. Sci. USA 91, 1614-1618 (1994)).

α-MSH receptor [2] = test: Frog melanocyte assay, inhibition of α-MSH (5 nM) mediated pigment dispersion in wild type melanophores; type: cell-based, Xenopus laevis; conditions: 5 nM α-MSH, t=30 min, FIG. 5
Method: Frog Melanocyte Assay. Xenopus laevis melanophores were maintained in culture as described by M. Engel et al., Biochemistry 30, 3161-3169 (1991); C. A. Slate et al., Int. J. Peptide Protein Res. 45, 290-298 (1995); and C. Plank et al., J. Biol. Chem. 269, 12918-12924 (1994). Transient expression of bombesin receptor plasmid DNA (pJG3.6BR) in melanophores was achieved by electroporation (C. A. Slate et al., Int. J. Peptide Protein Res. 45, 290-298 (1995)). […]
as §1, with “Data was curve fitted by nonlinear regression with y=1−(Tf/Ti).” left out
For this study, a rapid, functional assay for G-protein-coupled receptors in frog melanophore cells (C. K. Jayawickreme et al., J. Biol. Chem. 269, 29846-29854 (1994); M. N. Potenza et al., Anal. Biochem. 206, 315-322 (1992); G. F. Graminski et al., J. Biol. Chem. 268, 5957-5964 (1993); S. Karne et al., J. Biol. Chem. 268, 19126-19133 (1993); and C. K. Jayawickreme et al., Proc. Natl. Acad. Sci. USA 91, 1614-1618 (1994)) was used. […] In this study, the effect of monomeric and dimeric peptides on pigment dispersion was determined. […]

[3] = wild type melanophores, t=30 min

stimulation of dispersion below a concentration of 1 μM (α-MSH receptor [1]; below 1 μM, absence of α-MSH)	IC50 (α-MSH receptor [2]) [nM]	EC50 (α-MSH receptor [1]; [3]) [nM]	EC50 of dimer lower as compared to the monomer (fold) (α-MSH receptor [1]; [3])	Substance	pigment dispersion (result in words) (α-MSH receptor [1]; wild type melanophores)
did not stimulate dispersion	120 ± 6	–	–	MPdFRdWFKPV-GGGεAhx-K(20)-βAla [α-MSH-ANT monomer, assay monomer lacking cysteine]	No significant dispersion
–	–	372 ± 18	–	SYSMEHFRWGKPV-GGG-εAhx-K(20)-βAla [α-MSH monomer]	stimulated dispersion in a time and dose-dependent manner
–	–	72.5 ± 5	approximately 5 fold	homodimer: ligand domains SYSMEHFRWGKPV-, spacer GGG-εAhx, K(20), two disulfide-linked cysteines end capped at C-termini with β-alanine [α-MSH dimer]	stimulated dispersion in a time and dose-dependent manner
